PMC12040169 (PLOS Biology, 2025)

Experiment: in vitro
Conditions: human, hela cells, % viability

Row | Structure (SMILES) | viability at 28.5 h, 10 µM [%]
1 | O=C(O)C1(NCc2ccccc2Cl)CCCCC1 [CBK287269] | 78.9
2 | O=C(O)CCN1CCN(Cc2ccc(Cl)cc2)CC1 [CBK287271] | 87.5
3 | Cc1cnn(-c2cc(Oc3ccccc3)ncn2)c1 [CBK287276] | 114
4 | CN1CCc2c(sc3c2C(=O)NC(c2ccco2)N3)C1 (centres unmarked) [CBK287277] | 99.4
5 | c1ccc(Nc2nc3nonc3n3cnnc23)cc1 [CBK287278] | 105
6 | c1ccc(Nc2c(-c3ccccc3)nc3[nH]cnn23)cc1 [CBK287284] | 89.4
7 | Cc1csc2ncc(C(=O)NCc3ccccc3)c(=O)n12 [CBK287290] | 89.3
8 | COc1ccc(CCNC(=O)c2cnc3scc(C)n3c2=O)cc1 [CBK287291] | 103
9 | COc1ccccc1CNC(=O)c1cnc2scc(C)n2c1=O [CBK287293] | 102
10 | Cc1ccc(-n2c(=O)[nH]c3c(C(N)=O)nc(CC(C)C)nc32)cc1 [CBK287294] | 102
11 | COc1cc(C(=O)Nc2nc3c(s2)CC(C)CC3)cc(OC)c1OC (centres unmarked) [CBK287299] | 107
12 | Cc1cccc2sc(NC(=O)c3ccccc3)nc12 [CBK287300] | 102
13 | COc1cc(C(=O)Nc2nc3c(C)cccc3s2)cc(OC)c1OC [CBK287302] | 98.5
14 | COc1ccccc1C(=O)Nc1nc2ccc(NC(C)=O)cc2s1 [CBK287303] | 88.3
15 | CC(=O)Nc1ccc2nc(NC(=O)c3ccc(C)cc3)sc2c1 [CBK287304] | 103
16 | CC(=O)Nc1ccc2nc(NC(=O)c3ccc(C#N)cc3)sc2c1 [CBK287309] | 92.4
17 | CC(=O)c1sc(NC(=O)c2ccccc2)nc1-c1ccccc1 [CBK287315] | 87.8
18 | COc1ccc2nc(NC(=O)c3ccc(Br)s3)sc2c1 [CBK287316] | 92.8
19 | CC1(C)CC(=O)c2sc(NC(=O)Nc3ccccc3)nc2C1 [CBK287319] | 104
20 | N#Cc1ccc(-c2csc(NC(=O)c3ccc(Cl)s3)n2)cc1 [CBK287321] | 100
21 | Cc1cccc(C(=O)Nc2nc3ccc(S(C)(=O)=O)cc3s2)c1 [CBK287323] | 89.8
22 | CCC(=O)Nc1sc2c(c1-c1nc3ccccc3s1)CCCC2 [CBK287324] | 91.7
23 | COc1ccc(C(=O)Nc2nc(-c3ccc(OC)cc3)cs2)cc1 [CBK287325] | 99.2
24 | O=C(Nc1nc2c(s1)CCCC2)c1ccccc1 [CBK287326] | 82.9

Row | Structure (SMILES) | viability at 28.5 h, 10 µM [%]
25 | O=C(Nc1nc(-c2cccs2)cs1)c1ccc(F)cc1 [CBK287327] | 86.7
26 | CC1(C)CC(=O)c2sc(NC(=O)C3CC3)nc2C1 [CBK287329] | 104
27 | O=C(Nc1nc2c(s1)CCc1ccccc1-2)C1CC1 [CBK287330] | 85.3
28 | Cc1ccccc1-c1nnc(NC(=O)c2ccc(N3C(=O)CCC3=O)cc2)s1 [CBK287332] | 85.9
29 | O=C(Nc1nc(-c2ccccc2)cs1)c1ccc(N2C(=O)CCC2=O)cc1 [CBK287333] | 97.7
30 | Cc1ccc2nc(NC(=O)COc3ccccc3)sc2c1 [CBK287335] | 91
31 | Cc1ccccc1C(=O)Nc1nc2ccc(S(C)(=O)=O)cc2s1 [CBK287337] | 95.1
32 | COc1ccc(C(=O)Nc2nc3ccc(S(C)(=O)=O)cc3s2)cc1 [CBK287338] | 94.3
33 | CS(=O)(=O)c1ccc2nc(NC(=O)Cc3ccccc3)sc2c1 [CBK287339] | 89.8
34 | CS(=O)(=O)c1ccc2nc(NC(=O)c3ccco3)sc2c1 [CBK287341] | 95.4
35 | COc1cccc(C(=O)Nc2nc3ccc(F)cc3s2)c1 [CBK287342] | 86.9
36 | C=CCSc1nc2sc3c(c2c(=O)[nH]1)CCCC3 [CBK287344] | 110
37 | Cc1ccc(-c2csc(NC(=O)CN3C(=O)CCC3=O)n2)cc1 [CBK287346] | 98.3
38 | CCc1ccc(-c2csc(NC(=O)CN3C(=O)CCC3=O)n2)cc1 [CBK287347] | 90.3
39 | Cc1ccc(-c2csc(NC(=O)CN3C(=O)CCC3=O)n2)c(C)c1 [CBK287348] | 86.7
40 | Cc1cc(NC(=O)c2cccc(N3C(=O)CCC3=O)c2)no1 [CBK287352] | 112
41 | O=C(Nc1ccccn1)c1cc2ccccc2oc1=O [CBK287354] | 91.7
42 | Clc1ccc(Nc2ncnc3c2cnn3-c2ccc(Cl)cc2)cc1 [CBK287356] | 86.1
43 | c1ccc(-n2ncc3c(N4CCCC4)ncnc32)cc1 [CBK287357] | 86.6
44 | COc1ccccc1-c1nnc(NC(=O)Cc2cccs2)s1 [CBK287361] | 93.5
45 | CC(=O)N1CCN(c2nc3ccccc3s2)CC1 [CBK287362] | 95
46 | CC(=O)c1ccc(C(=O)Nc2nc3c(s2)COc2ccccc2-3)cc1 [CBK287363] | 81.9
47 | Cc1cccc2sc(NC(=O)C3COc4ccccc4O3)nc12 (centres unmarked) [CBK287367] | 113
48 | NC(=O)c1c(NC(=O)c2ccc3ncsc3c2)sc2c1CCCC2 [CBK287369] | 94.4

Row | Structure (SMILES) | viability at 28.5 h, 10 µM [%]
49 | O=C(Nc1nc(-c2ccncc2)cs1)C1COc2ccccc2O1 (centres unmarked) [CBK287370] | 96.7
50 | Cc1ccccc1NC(=O)c1cnc2n(c1=O)CCS2 [CBK287374] | 110
51 | Cc1ccc(NC(=O)c2cnc3n(c2=O)CCS3)cc1 [CBK287376] | 108
52 | O=C(Nc1cccc2c1CCCC2)c1cnc2n(c1=O)CCS2 [CBK287379] | 105
53 | O=C(Nc1ccc(Cl)c(Cl)c1)c1cnc2n(c1=O)CCS2 [CBK287381] | 108
54 | CCN(C(=O)c1cnc2n(c1=O)CCS2)c1ccccc1 [CBK287384] | 103
55 | Fc1ccc(N2CCN(c3ncnc4[nH]cnc34)CC2)cc1 [CBK287387] | 89.8
56 | Cc1cc(NC(=O)CSc2nnc(-c3ccccc3)o2)no1 [CBK287389] | 96.2
57 | COc1ccccc1-c1nnc(SCC(=O)Nc2nccs2)o1 [CBK287390] | 107
58 | COc1cccc(-c2nnc(SCC(=O)Nc3cc(C)on3)o2)c1 [CBK287391] | 89.9
59 | CCc1nnc(NC(=O)CSc2ncnc3c2oc2ccccc23)s1 [CBK287392] | 90.7
60 | O=C(CSc1ncnc2c1oc1ccccc12)Nc1ccccc1F [CBK287393] | 87.3
61 | Cc1cc(C)cc(NC(=O)CSc2ncnc3c2oc2ccccc23)c1 [CBK287394] | 90.5
62 | c1ccc(CSc2ncnc3c2oc2ccccc23)cc1 [CBK287398] | 103
63 | O=C(CSc1nccn1-c1ccccc1)Nc1ccc(F)cc1 [CBK287399] | 76.1
64 | COc1ccc(OC)c2sc(NC(=O)c3ccc(Br)s3)nc12 [CBK287400] | 93.7
65 | O=C(Nc1nnc(-c2ccc3c(c2)OCCO3)o1)c1ccc2c(c1)OCCO2 [CBK287403] | 84.5
66 | CCC(=O)Nc1nnc(-c2ccc3c(c2)OCCO3)o1 [CBK287404] | 92.6
67 | O=C(Nc1nnc(C2=COCCO2)o1)c1ccc(-c2ccccc2)cc1 [CBK287407] | 84.5
68 | COc1ccc(C(=O)Nc2nnc(C3=COCCO3)o2)cc1 [CBK287409] | 93.9
69 | N#Cc1ccc(C(=O)Nc2nnc(C3=COCCO3)o2)cc1 [CBK287411] | 83.3
70 | CN(C)c1ccc(C(=O)Nc2nnc(C3=COCCO3)o2)cc1 [CBK287415] | 98.8
71 | O=C(Cc1ccccc1)Nc1nnc(C2=COCCO2)o1 [CBK287416] | 92.2
72 | O=C(Nc1nnc(C2=COCCO2)o1)c1cccc(Cl)c1 [CBK287417] | 83.5

Row | Structure (SMILES) | viability at 28.5 h, 10 µM [%]
73 | O=C(Nc1nnc(-c2ccco2)o1)c1ccc(N2C(=O)CCC2=O)cc1 [CBK287423] | 90.7
74 | O=C(Nc1nnc(-c2ccco2)o1)c1ccc2c(c1)CCCC2 [CBK287425] | 79.1
75 | O=C(CN1C(=O)CCC1=O)Nc1nnc(-c2ccc3c(c2)CCCC3)o1 [CBK287427] | 80.2
76 | O=C(Nc1nnc(-c2ccccn2)o1)c1cc(Cl)ccc1Cl [CBK287429] | 96.9
77 | O=C(Nc1nnc(-c2ccncc2)o1)c1ccc(F)cc1 [CBK287431] | 80
78 | O=C(Nc1nnc(-c2ccncc2)o1)c1ccc(Cl)cc1Cl [CBK287433] | 82.3
79 | Cc1cc(NC(=O)COc2ccccc2)nc2c1c(=O)oc1ccccc12 [CBK287436] | 99.8
80 | COc1cccc(C(=O)Nc2cc(C)c3c(=O)oc4ccccc4c3n2)c1OC [CBK287437] | 106
81 | Cc1cc(NC(=O)c2cccs2)nc2c1c(=O)oc1ccccc12 [CBK287439] | 91.8
82 | Cc1cc(NC(=O)C(C)C)nc2c1c(=O)oc1ccccc12 [CBK287441] | 89.7
83 | COc1ccc(C(=O)Nc2cc(C)c3c(=O)oc4ccccc4c3n2)cc1OC [CBK287442] | 89
84 | Cc1cc(NC(=O)CC(C)(C)C)nc2c1c(=O)oc1ccccc12 [CBK287444] | 101
85 | Cc1cc(NC(=O)c2cc3ccccc3oc2=O)nc2c1c(=O)oc1ccccc12 [CBK287445] | 100
86 | Cc1ccccc1NC(=O)c1cnc2sccn2c1=O [CBK287447] | 74.9
87 | O=C(Nc1ccc(Cl)c(Cl)c1)c1cnc2sccn2c1=O [CBK287449] | 83.3
88 | Cc1ccc(C)c(NC(=O)c2cnc3sccn3c2=O)c1 [CBK287451] | 85.1
89 | CCN(C(=O)c1cnc2scc(C)n2c1=O)c1ccccc1 [CBK287452] | 105
90 | Cc1ccc(NC(=O)c2cnc3scc(C)n3c2=O)cc1 [CBK287454] | 107
91 | Cc1csc2ncc(C(=O)Nc3ccc(OC(F)(F)F)cc3)c(=O)n12 [CBK287457] | 108
92 | Cc1csc2ncc(C(=O)Nc3ccccc3C#N)c(=O)n12 [CBK287458] | 95.3
93 | Cc1csc2ncc(C(=O)Nc3ccc(Cl)c(Cl)c3)c(=O)n12 [CBK287459] | 104
94 | Cc1ccc(NC(=O)c2cnc3scc(C)n3c2=O)cc1C [CBK287461] | 108
95 | Cc1c(Cl)cccc1NC(=O)c1cnc2scc(C)n2c1=O [CBK287463] | 117
